Test results: publication PMC9692247 (Pharmaceuticals, 2022)
Each block holds one compound with its values, some of them ahead of it.

Key:
[1] = target: T1, recombinant zfHDAC6 (HDAC6 CD2) (Danio rerio, UniProt F8W4B7); test: Fluorescence polarization (FP) competition assay with FITC-M344; assay type: binding, Danio rerio (zebrafish); conditions: for IC50: 300 nM HDAC6 CD2, 50 nM FITC-M344, read-out: Fluorescence polarization IC50 against zfHDAC6
T1 construct: HDAC6 from Danio rerio (zebrafish; catalytic domain 2, S440-R798); His-SUMO (N, cleaved yes); made in house; host or cells: E. coli BL21 (DE3) RILP
T1 sequence (F8W4B7 440-798): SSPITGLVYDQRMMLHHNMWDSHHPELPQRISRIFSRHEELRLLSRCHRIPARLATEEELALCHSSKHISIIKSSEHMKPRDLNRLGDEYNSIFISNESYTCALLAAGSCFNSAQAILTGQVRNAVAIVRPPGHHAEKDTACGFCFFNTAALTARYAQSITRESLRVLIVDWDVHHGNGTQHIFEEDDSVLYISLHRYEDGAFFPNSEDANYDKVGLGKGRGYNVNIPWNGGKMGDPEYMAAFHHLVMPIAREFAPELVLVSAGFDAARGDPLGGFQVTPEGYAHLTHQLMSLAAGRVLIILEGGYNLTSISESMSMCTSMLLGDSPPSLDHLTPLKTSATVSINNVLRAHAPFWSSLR
Procedure: The FP assay was conducted in a Greiner Bio-one black 384-well, nonbinding microplate (Cat 781900) as previous described. These studies were performed in FP buffer (20 mM HEPES pH 8.0, 137 mM NaCl, 3 mM KCl, 1 mM TCEP, 5% DMSO). Binding experiments were performed in the presence of 50 nM FITC-M344 synthesized as described by Mazitschek et al. and titrated with 0–3 µM HDAC6. Competition assays were performed by titrating 0–100 µM inhibitor to 300 nM HDAC6 CD2 and preincubating the samples for 10 min prior to addition of 50 nM FITC-M344 in FP buffer. The assay mixture was incubated for an additional 10 min before FP measurement. Polarization measurements were collected using Infinite M1000-Tecan (ex/em = 470 nm/530 nm) and data were plotted and fitted using Prism GraphPad 6 built-in function, log(inhibitor) vs. response—variable slope (four parameters).

HDAC6 = HDAC6 (Homo sapiens, UniProt Q9UBN7); test: Intracellular target engagement residence time assay (NanoBRET) in HeLa cells; assay type: cell-based; conditions: HeLa cells transiently expressing HDAC6-NanoLuc full-length fusion protein
[2] = Plasma stability evaluation; assay type: in vitro ADME; conditions: read-out: T1/2 in plasma
[3] = In vivo PK study in CD-1 male mice (plasma); design: species or system CD-1 mice
Procedure: (§1) In vivo mouse studies were performed at Pharmaron in CD-1 male mice in triplicate. The test compounds were formulated within a 4 mg/mL solution (10% DMA, 65% PEG400, 25% saline). CD-1 mice were administered the test compound (50 mg/kg, I.P) once, and blood samples were obtained from each mouse at 0.25, 0.5, 1, 2, 4, 8, and 24 h post-dose. The mice had free access to food and water, were inspected for clinical signs and were weighted once prior to dosing. The working solutions of 5 μL at different concentrations (2, 4, 10, 20, 100, 200, 1000, 2000 ng/mL) were added to CD-1 mouse plasma (10 μL) to generate calibration standards of 1, 2, 5, 10, 50, 100, 500, and 1000 ng/mL. Four quality control (QC) samples at 2, 5, 50, and 800 ng/mL for plasma were prepared independently of calibration curves. Standards, QC samples, and unknown samples (total volume 15 µL) were added to acetonitrile (200 μL) containing IS (2 ng/mL Verapamil, and 50 ng/mL Dexamethasone) for precipitation of protein. Samples were vortexed and centrifuged (4 °C, 3900 rpm, 15 min), and the supernatant was diluted 3× with ultra-pure water. Diluted supernatant was injected into the LC-MS/MS system for quantitative analysis.

[4] = In vivo brain PK analysis in male CD-1 mice; conditions: IP, 50 mg/kg, n = 3
Procedure: as §1

DERL-2 cells [5] = test: Cytotoxicity assay (Cell Titer-Blue, 72 h); assay type: cell-based; conditions: Homo sapiens, one representative of three experiments
Procedure: (§2) KHYG-1, SNK6, MTA, YT, DERL-2, DERL-7, Mac2a, SU-DHL-1, Myla, Hut78, SeAx, HH, MOTN-1, KOPT-K1, Jurkat, and Loucy cells were plated in 96-well flat-bottom sterile culture plates with low-evaporation lids (Costar #3997). The inhibitors and a vehicle control (0.5% DMSO) were added to the cells following 24 h. After 72 h, Cell Titer-Blue® (Promega #G808A) was added to each well (20 μL), and the fluorescence was measured at 560/590 nm using a Cytation S63 spectrophotometer (BioTek) or on the GloMax® Discover Microplate Reader (Promega, Madison, WI, USA). IC50 values were determined using non-linear regression analysis with GraphPad Prism 6.0 (GraphPad Software Inc., San Diego, CA, USA).

DERL-7 cells = test: Cytotoxicity assay (Cell Titer-Blue, 72 h); assay type: cell-based; conditions: Homo sapiens, DERL7, one representative of three experiments
Procedure: as §2

HH cells = test: Cytotoxicity assay (Cell Titer-Blue, 72 h); assay type: cell-based; conditions: Homo sapiens, one representative of three experiments
Procedure: as §2

Hut78 cells = test: Cytotoxicity assay (Cell Titer-Blue, 72 h); assay type: cell-based; conditions: Homo sapiens, one representative of three experiments
Procedure: as §2

Jurkat cells = test: Cytotoxicity assay (Cell Titer-Blue, 72 h); assay type: cell-based; conditions: Homo sapiens, one representative of three experiments
Procedure: as §2

KHYG-1 cells = test: Cytotoxicity assay (Cell Titer-Blue, 72 h); assay type: cell-based; conditions: Homo sapiens, one representative of three experiments, ANKL to T-ALL panel
Procedure: as §2

KOPT-K1 cells = test: Cytotoxicity assay (Cell Titer-Blue, 72 h); assay type: cell-based; conditions: Homo sapiens, KOPTK1, one representative of three experiments
Procedure: as §2

Loucy cells = test: Cytotoxicity assay (Cell Titer-Blue, 72 h); assay type: cell-based; conditions: Homo sapiens, one representative of three experiments
Procedure: as §2

MOTN-1 cells = test: Cytotoxicity assay (Cell Titer-Blue, 72 h); assay type: cell-based; conditions: Homo sapiens, one representative of three experiments
Procedure: as §2

MTA cells = test: Cytotoxicity assay (Cell Titer-Blue, 72 h); assay type: cell-based; conditions: Homo sapiens, one representative of three experiments
Procedure: as §2

Mac2a cells = test: Cytotoxicity assay (Cell Titer-Blue, 72 h); assay type: cell-based; conditions: Homo sapiens, one representative of three experiments
Procedure: as §2

Myla cells = test: Cytotoxicity assay (Cell Titer-Blue, 72 h); assay type: cell-based; conditions: Homo sapiens, one representative of three experiments
Procedure: as §2

SNK6 cells = test: Cytotoxicity assay (Cell Titer-Blue, 72 h); assay type: cell-based; conditions: Homo sapiens, one representative of three experiments
Procedure: as §2

SU-DHL-1 cells = test: Cytotoxicity assay (Cell Titer-Blue, 72 h); assay type: cell-based; conditions: Homo sapiens, one representative of three experiments
Procedure: as §2

SeAx cells = test: Cytotoxicity assay (Cell Titer-Blue, 72 h); assay type: cell-based; conditions: Homo sapiens, one representative of three experiments
Procedure: as §2

YT cells = test: Cytotoxicity assay (Cell Titer-Blue, 72 h); assay type: cell-based; conditions: Homo sapiens, one representative of three experiments
Procedure: as §2

[6] = test system: acetylation of α-tubulin and histone H3 in acute myeloid leukemia (MV4-11) cells; test: In cellulo target engagement by Western blotting; assay type: cell-based; conditions: 6 h treatment, Western blot
Procedure: (§3) Cells (MV4-11 AML, MM.1S multiple myeloma, or YT cells) were incubated with inhibitors prior to washes (2×) with cold phosphate-buffered saline (PBS) and cell lysis with radioimmunoprecipitation assay (RIPA) buffer (20 mM Tris pH 7.4, 150 mM NaCl, 0.5% deoxycholate, 1% Triton X-100, and 0.1% sodium dodecyl sulfate (SDS)). Total protein content was determined through a bicinchoninic acid (BCA) assay (ThermoFisher Scientific, Waltham, MA, USA). The cell lysate proteins were separated via a 4–20% polyacrylamide SDS gel and transferred to a PVDF membrane (Bio-Rad, Hercules, CA, USA). Non-specific binding of the antibody to the membrane was reduced by blocking the membranes with a 5% (w/v) solution of Bovine Serum Albumin powder in TBS-T. This was followed by incubation at 4 °C (overnight) with the following antibodies: acetylated α-tubulin mouse monoclonal (sc-23950, Santa Cruz, Santa Cruz, CA, USA), acetylated Histone H3 (Ac-Lys18, 07-354, Sigma), β-Actin mouse monoclonal (AC-15, sc-69879, Santa Cruz), and […] HSC70 (sc-7298, Santa Cruz). Following overnight incubation, horseradish peroxidase (HRP)-conjugated goat anti-mouse IgG secondary antibody (7076, Cell Signaling) or HRP-linked anti-rabbit IgG secondary antibody (7074, Cell Signaling) was applied to the membrane in a 1:5000 dilution for 1 h. The bands were visualized using clarity Western ECL substrate luminal/enhancer solution and peroxide solution. Western blotting analysis was carried out using Image lab software (Bio-Rad).

[7] = test system: acetylation of α-tubulin and histone H3 in multiple myeloma (MM.1S) cells; test: In cellulo target engagement by Western blotting; assay type: cell-based; conditions: 6 h treatment, Western blot
Procedure: as §3

DERL-2 cells [8] = test: FACS apoptosis detection assay (annexin V/PI); assay type: cell-based, human; conditions: DERL-2, 18 h treatment
Procedure: DERL-2 cells were seeded, dosed with inhibitors, incubated for 18 h, and washed with ice cold 1× PBS. The resulting cell pellets were resuspended in 1× Binding Buffer (1 × 10^6 cell/mL) from the FITC Annexin V Apoptosis Detection Kit I (BD Pharmingen). Subsequently, the dyes Annexin V (5 μL) and Propidium Iodide (PI, 5 μL) were added to 2.5 × 10^5 cells (250 μL). The suspension was thoroughly mixed and incubated in the dark for 15 min. Following the addition of 250 μL of 1× binding buffer the cells were analyzed by flow cytometry within 1 h using Cytoflex S (Beckman Coulter, Brea, CA, USA).

[9] = mouse, plasma, male CD-1 mice, IP, 50 mg/kg, n = 3

Structure (SMILES): O=C(CCCCCCNC(=O)c1cnc(N(c2ccccc2)c2ccccc2Cl)nc1)NO [Citarinostat, citarinostat]
IC50 [1]: 0.0902 µM | Binding affinity lower than NN-429 (FP) ([1]; FP IC50 vs NN-429): 3 fold

Intracellular residence time in HDAC6 (HDAC6): 97 min
Structure (SMILES): CC(C)N(Cc1ccc(C(=O)NO)cc1)S(=O)(=O)c1cc(F)c(F)c(F)c1F [NN-390]

IC50 [1]: 0.0288 µM | half-life [2]: 1.55 h | in vivo t1/2 longer than that of KT-531 ([3]; CD-1 mice, KT-531 at a lower dose): > 3.5 fold | in vivo t1/2 longer than that of NN-390 ([3]; CD-1 mice, NN-390 at a lower dose): ~ 1.8 fold | AUC(0-inf) [3, 9]: 9920 ng·h/mL | AUC(0-t) [3, 9]: 9860 ng·h/mL | Cmax [3, 9]: 3190 ng/mL | half-life [3, 9]: 3.53 h | Levels in the brain [4]: no observable levels
Structure (SMILES): CC(C)N(Cc1ccc(C(=O)NO)cc1F)S(=O)(=O)c1cc(F)c(F)c(F)c1F [NN-429]
IC50 (DERL-2 cells [5]): 2.32 µM | IC50 (DERL-7 cells): 2.21 µM | IC50 (HH cells): 2.95 µM | IC50 (Hut78 cells): 16.7 µM | IC50 (Jurkat cells): 5.46 µM | IC50 (KHYG-1 cells): 7.25 µM | IC50 (KOPT-K1 cells): 6.16 µM | IC50 (Loucy cells): 3.6 µM | IC50 (MOTN-1 cells): 2.75 µM | IC50 (MTA cells): 0.72 µM | IC50 (Mac2a cells): 15.1 µM | IC50 (Myla cells): > 50 µM | IC50 (SNK6 cells): 12 µM | IC50 (SU-DHL-1 cells): 4.72 µM | IC50 (SeAx cells): 12.4 µM | IC50 (YT cells): 1.29 µM | Target engagement (α-tubulin vs histone H3 acetylation) [6]: strong target engagement with minimal acetylation of off-target histone H3 | Concentration with visible off-target interaction (histone H3 acetylation) [7]: 5 µM | Lowest concentration with dose-dependent increase in acetylation of α-tubulin [7]: 0.1 µM | Cells undergoing early-stage apoptosis (annexin V+/PI−) (DERL-2 cells [8]; 0.1 μM): 15% | Cells undergoing early-stage apoptosis (annexin V+/PI−) (DERL-2 cells [8]; 5 μM): 56%
